Test results reported in patent US12186332B2, “Methods for overcoming WNT/beta-catenin anti-cancer resistance in leukemia stem cells” (STOWERS INSTITUTE FOR MEDICAL RESEARCH, priority 2019, dated 2025).

Tests used:
[1] = test system: Akt-enhanced β-catenin activity (TOP-Luc); experiment: HTS TOPFlash/FOPFlash luciferase reporter dose-response; assay type: cell-based
pS^552-β-catenin = experiment: Western analysis of compound-treated TOP and FOP cells; assay type: cell-based
Method: TOP and FOP cells were treated with thioguanosine at EC90, EC50 and EC25 derived from FIG. 2A for 48 hours, washed and flash frozen for Western analysis. EC50 data is shown.
TOP and FOP cells were treated with compound 0105375 at EC90, EC50 and EC25 derived from FIG. 2B for 48 hours, washed and flash frozen for Western analysis. EC50 data is shown.
TOP and FOP cells were treated with doxorubicin at EC90, EC50 and EC25 derived from FIG. 2C for 48 hours, washed and flash frozen for Western analysis. EC50 data is shown.

[2] = test system: BM cells isolated from leukemic double mutants (LSCs, HSPCs); experiment: In vitro treatment of BM cells from leukemic mice; assay type: cell-based, mouse; conditions: 11, 33 or 100 nM, 72 hours
Method: Doxorubicin, 0105375, and thioguanosine were added to 11, 33 or 100 nM and cultured for 72 hours and analyzed by flow cytometry for LSCs as in FIGS. 1A-1E. Fold change before and after culture for each population is indicated relative to equivalent vehicle control concentrations.
Doxorubicin, 0105375, and thioguanosine were added to 11, 33 or 100 nM and cultured for 72 hours and analyzed by flow cytometry for HSPCs as in FIGS. 1A-1E. Fold change before and after culture for each population is indicated relative to equivalent vehicle control concentrations.
Bone marrow cells from leukemic mice at 8 weeks post-induction were cultured overnight at 5-20×10^4 cells per well in 96-well U-bottom tissue culture plates (Becton, Dickinson and Company; Cat. No. 353077) in HSC expansion media in low O2 conditions as previously described (Perry et al. 2011). Doxorubicin (Sigma; D1515), 0105375 (University of Kansas CMLD compound), or Thioguanosine was mixed with HSC expansion media and added to the cultures to obtain final concentrations of 11, 33, 100 nM. Equivalent amounts of DMSO alone (vehicle control) were added to parallel cultures for comparison. Half-media changes were performed approximately every 24 hours. Cultures were analyzed after 72 hours exposure to the indicated drug.

[3] = test system: Wnt-signaling reporter activity (TCF/Lef:H2B-GFP); experiment: TCF/Lef:H2B-GFP reporter mice; assay type: in vivo, mouse; conditions: low-dose DXR (legend: [Low]nanoDXR, 3 hours post-injection)
Source text: Percent of TCF/Lef:H2B-GFP^+ cells for each population are indicated.

[4] = test system: leukemia (T-ALL) in Pten:β-cat^Act mice; experiment: Long-term survival of treated leukemic mice; assay type: in vivo, mouse
Method: Treatment schematic and Kaplan-Meier curves of leukemic mice treated as indicated. Red arrow indicates day 0 in survival curve.
Dashed line indicates day of final [Low]nanoDXR treatment.
Chemotherapy for the animal model consisted of Nelarabine (Selleck) and Dexamethasone (BioVision) administered daily for 5 days consecutively. 43.4 mg/ml Nelarabine was administered intravenously via the tail vain according to the formula: Body Weight (g)×5=volume to inject (μl), which yielded 217 mg/kg. 2.5 mg/ml Dexamethasone was injected intraperitoneally according to the formula: Body Weight (g)×4=volume to inject (μl), yielding 10 mg/kg. […] [Low] NanoDXR treatment used doxorubicin nanoparticles (Tran et al. 2014) administered as a single IV injection once per week on day 1 relative to above treatments using 0.8 mg/kg. Maintenance [Low] NanoDXR consisted of once per week injections of 0.4 mg/kg. Groups combining Nelarabine with Doxorubicin used a single injection containing both drugs. All drugs were solubilized in 45% (2-Hydroxypropyl)-p-cyclodextrin (HBC) or 0.9% NaCl.

HEK-TOP cell lines = experiment: Cell Titer Glo cytotoxicity profile (CTG); conditions: concentration range as worded in the sentence
Method: Activity of compounds was tested against HEK-TOP cells vs. HEK FOP cells for inhibition of luciferase activity. The cytotoxicity profiles of the compounds were also tested using Cell Titer Glo assay (Promega) on HEK-TOP cell lines.

[5] = particularly low concentrations, 48 hours

COc1cccc2c1C(=O)c1c(O)c3c(c(O)c1C2=O)C[C@@](O)(C(=O)CO)C[C@@H]3O[C@H]1C[C@H](N)[C@H](O)[C@H](C)O1 [DXR, doxorubicin]
concentration at which Akt-enhanced β-catenin activity (TOP-Luc) is specifically inhibited (compare to FOP-Luc control) ([1]; HEK-293 TOPFlash vs FOPFlash Akt^Act βcat^Act cells): lower than 1 μM | specificity (FOP-Luc) at higher concentrations ([1]; higher concentrations (above 1 μM)): reduced specificity | inhibition of pS552-β-catenin relative to pan β-catenin (HTS candidates) (pS^552-β-catenin): could inhibit pS^552-β-catenin with less effect on pan β-catenin | effect on β-catenin generally (pS^552-β-catenin; [5]): only minimal effect | pS552-β-catenin level (pS^552-β-catenin; [5]): inhibited | effect on HSPCs relative to vehicle [2]: lower effect | effect on LSCs relative to vehicle [2]: significantly reduced | Wnt-signaling reporter activity [3]: significantly inhibits | survival compared to vehicle alone ([4]; clinical-dose DXR combined with chemotherapy): significantly reduced survival | improvement of survival ([4]; mouse, in vivo): did not | toxicity (CTG) (HEK-TOP cell lines): increased toxicity
